Species on record: Rattus norvegicus
Assay: Open TG-GATES - Regimen: Daily Repeat
Type: toxicity, organism-based, Sprague-Dawley
Set-up: regimen Daily Repeat, gender Male, age 6 weeks
Settings: in vivo, iv, 0 mg/kg, route intravenous injection, dose level Control; for APTT / Bas / Eos / Fbg / Hb / Ht / Lym / MCH / MCHC / MCV / Mono / Neu / PT / Plat / RBC / Ret / WBC: tissue Blood
[1] = 72 h, tissue Kidney, time 3 day
[2] = 72 h, tissue Plasma, time 3 day

## CC(=O)OCC1=C(C(=O)O)N2C(=O)[C@@H](NC(=O)Cc3cccs3)[C@H]2SC1 [CEPHALOTHIN]
72 h, time 3 day
  TERMINAL_BW: 230.4 g
  APTT: 21.2 s
  Bas: 0%
  Eos: 0.8%
  Fbg: 292.4 mg/dL
  Hb: 13.4 g/dL
  Ht: 38.5%
  Lym: 82%
  MCH: 21.2 pg
  MCHC: 34.9%
  MCV: 60.8 fL
  Mono: 3.4%
  Neu: 13%
  PT: 16.1 s
  Plat: 120.3 x10_4/uL
  RBC: 633 x10_4/ul
  Ret: 6.8%
  WBC: 100.4 x10_2/uL
[1]
  KIDNEY_L: 1 g
  KIDNEY_R: 1 g
  KIDNEY_TOTAL: 2 g
72 h, tissue Liver, time 3 day
  LIVER: 10.5 g
[2]
  ALP: 1655.6 IU/L
  ALT: 38.8 IU/L
  AST: 69.2 IU/L
  BUN: 18 mg/dL
  CRE: 0.2 mg/dL
  Ca: 10.8 mg/dL
  Cl: 105.4 meq/L
  DBIL: 0 mg/dL
  GLC: 185.8 mg/dL
  IP: 6.9 mg/dL
  K: 4.6 meq/L
  LDH: 153.6 IU/L
  Na: 140.8 meq/L
  PL: 147.2 mg/dL
  RALB: 3 g/dL
  TBIL: 0.002 mg/dL
  TC: 79.2 mg/dL
  TG: 108.4 mg/dL
  TP: 5.3 g/dL
  gamma-GTP: 1.6 IU/L
[…], time 7 day
  TERMINAL_BW: 261.3 g
  APTT: 22.6 s
  Bas: 0%
  Eos: 0.8%
  Fbg: 303 mg/dL
  Hb: 13.2 g/dL
  Ht: 37.9%
  Lym: 78.6%
  MCH: 20.5 pg
  MCHC: 34.8%
  MCV: 59 fL
  Mono: 2.2%
  Neu: 17.8%
  PT: 17 s
  Plat: 139.9 x10_4/uL
  RBC: 642.6 x10_4/ul
  Ret: 5.7%
  WBC: 107.7 x10_2/uL
[…], time 14 day
  TERMINAL_BW: 318.6 g
  APTT: 23.5 s
  Bas: 0%
  Eos: 1%
  Fbg: 268.2 mg/dL
  Hb: 14.2 g/dL
  Ht: 39.3%
  Lym: 76.4%
  MCH: 20.3 pg
  MCHC: 36.1%
  MCV: 56.2 fL
  Mono: 3%
  Neu: 18.8%
  PT: 16.1 s
  Plat: 126.1 x10_4/uL
  RBC: 698.6 x10_4/ul
  Ret: 4.8%
  WBC: 110.4 x10_2/uL
[…], time 28 day
  TERMINAL_BW: 376.6 g
  APTT: 26.5 s
  Bas: 0%
  Eos: 1%
  Fbg: 291.4 mg/dL
  Hb: 15.6 g/dL

Reference: ChEMBL document CHEMBL3885861, “Open TG-GATES”
